Type in all cases: biochemical
The target in test [1] is T1, catalase (from bovine liver), cleavable DTSSP cross-linked cl-nanozyme with PEG-pLL50, non-purified (C2) (Bos taurus, UniProt P00432).
T1 construct: purchased Calbiochem (Gibbstown, N.J.); host or cells: bovine liver
T1 sequence (P00432 2-527 limits assumed): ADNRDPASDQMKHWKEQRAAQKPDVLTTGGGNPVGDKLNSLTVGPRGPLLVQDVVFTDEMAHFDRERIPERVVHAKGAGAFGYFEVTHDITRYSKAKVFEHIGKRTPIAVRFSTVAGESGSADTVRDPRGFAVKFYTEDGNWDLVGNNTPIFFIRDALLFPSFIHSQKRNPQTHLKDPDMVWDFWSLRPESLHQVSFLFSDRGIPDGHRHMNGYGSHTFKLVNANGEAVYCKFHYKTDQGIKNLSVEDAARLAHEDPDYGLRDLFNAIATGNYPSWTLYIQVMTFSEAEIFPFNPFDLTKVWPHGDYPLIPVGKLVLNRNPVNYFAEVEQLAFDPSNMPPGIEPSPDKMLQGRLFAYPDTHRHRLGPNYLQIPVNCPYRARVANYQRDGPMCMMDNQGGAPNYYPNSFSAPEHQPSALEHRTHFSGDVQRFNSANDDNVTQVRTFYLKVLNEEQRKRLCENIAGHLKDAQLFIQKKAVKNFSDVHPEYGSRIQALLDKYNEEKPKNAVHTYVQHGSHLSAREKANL
The experiment in a line: Catalytic constants of DTSSP cross-linked catalase cl-nanozyme (C2) from effect of H2O2 concentration on rate of H2O2 decomposition. The procedure: (§1) SOD1 (from bovine erythrocytes), hydrogen peroxide (H2O2), 2,3,5-triphenyltetrazolium chloride (TTC) and copper standards for Inductively Coupled Plasma Mass Spectroscopy (ICP-MS)— TraceCERT®, 1000 mg/L Cu in nitric acid) were from Sigma-Aldrich (St. Louis, Mo.). Catalase (from bovine liver) was from Calbiochem (Gibbstown, N.J.). PEG-pLL50 was from Alamanda Polymers™ (Huntsville, Ala.). […] Cross-linkers 3,3′-dithiobis(sulfosuccinimidylpropionate) (DTSSP) and bis(sulfosuccinimidyl)suberate (BS^3) were from Thermo Fisher Scientific (Rockford, Ill.). NAP™ desalting columns and HiPrep 16/60 Sephacryl S-400 HR column were from GE Healthcare (Piscataway, N.J.). Criterion Tris-HCl gels and Precision Plus Protein™ All Blue Standards were from Bio-Rad (Hercules, Calif.). SYPRO® Ruby protein gel stain and cell culture reagents were purchased from Invitrogen (Carlsbad, Calif.). CellTiter 96® AQueous One Solution Cell Proliferation Assay (MTS) was from Promega (Madison, Wis.). LumiMax Superoxide Anion Detection Kit was from Agilent Technologies, Inc. (Santa Clara, Calif.). All other reagents and supplies were from Fisher Scientific (Pittsburgh, Pa.) unless noted otherwise.
(§2) Enzyme and polymer stock solutions were prepared in 10 mM HEPES (pH 7.4) and 10 mM HEPES-buffered saline (HBS; pH 7.4) for SOD1 and catalase, respectively. Non-cross-linked BICs (Z+/−=2) were prepared as described (Klyachko et al. (2012) Nanomed. Nanotechnol. Biol. Med., 8:119-129). Targeted degree of cross-linking was defined as the molar ratio between cross-linker (DTSSP/BS^3) and pLL amines Precalculated amount of the respective cross-linker was dissolved in the reaction buffer (HEPES/HBS), quickly added to BICs, and the reaction mixture was briefly vortexed and incubated for 2 hours on ice. Unreacted crosslinker was desalted using NAP™ columns following manufacturer's instructions. Cl-Nanozymes were purified using size exclusion chromatography (SEC) (small/intermediate scale) or centrifugal filtration (large scale). […] Protein concentration was determined using Micro BCA™ Protein Assay Kit. […]

Test [2] has as its target T2, catalase (from bovine liver), cleavable DTSSP cross-linked cl-nanozyme with PEG-pLL50, purified (C2p) (Bos taurus, UniProt P00432).
T2 construct: purchased Calbiochem (Gibbstown, N.J.); host or cells: bovine liver
T2 sequence (P00432 2-527 limits assumed): T1 sequence (P00432 2-527 limits assumed)
Put plainly: Catalytic constants of purified DTSSP cross-linked catalase cl-nanozyme (C2p) from effect of H2O2 concentration on rate of H2O2 decomposition. The procedure: as §1
as §2, with “scale). SEC was carried out using an ÄKTA™ Fast Protein Liquid Chromatography (FPLC) (Amersham Biosciences, Piscataway, N.J.) system. DTSSP cl-nanozymes were lyophilized overnight, reconstituted in deionized water (DW), loaded onto a HiPrep 16/60 Sephacryl™ S-400 HR column and eluted using 10 mM HBS (pH 7.4) at a flow rate of 0.5 mL/minute. Prior to each experiment, the column was pre-conditioned with free block copolymer (PEG-pLL50) to minimize non-specific adsorption of the cl-nanozymes (Boeckle et al. (2004) J. Gene Med., 6:1102-1111).” for “scale).”

The target in test [3] is T3, catalase (from bovine liver), native (nC) (Bos taurus, UniProt P00432).
T3 construct: purchased Calbiochem (Gibbstown, N.J.); host or cells: bovine liver
T3 sequence (P00432 2-527 limits assumed): T1 sequence (P00432 2-527 limits assumed)
The experiment in a line: Catalytic constants of native catalase (nC) from effect of H2O2 concentration on rate of H2O2 decomposition. The note with it: H2O2 0 to 65 mM, catalase 2 μg/mL, 50 mM phosphate buffer pH 7.4, 240 nm, Lineweaver-Burk. The procedure:
as §1

[4] abbreviates: H2O2 0 to 65 mM, catalase 2 μg/mL, 50 mM phosphate buffer pH 7.4, 240 nm, Lineweaver-Burk, non-purified cl-nanozyme C2.
Setting [5] is: H2O2 0 to 65 mM, catalase 2 μg/mL, 50 mM phosphate buffer pH 7.4, 240 nm, Lineweaver-Burk, purified cl-nanozyme C2p.

As usually defined, the Km is the substrate concentration at which the rate is half of its maximum. For orientation: kcat means the number of substrate molecules converted per active site and unit of time at saturation.

As to `OO` [H2O2, hydrogen peroxide], in test [1] (C2 compared to native catalase (nC)), the “increase in Km value” is reported as “ca. 1.8 fold”. For the same compound, the values for the Km in test [1] (setting [4]), in test [2] (setting [5]) and in test [3] were 94.1 mM, 93.2 mM and 53.2 mM, respectively. Moreover, the kcat in test [1] (setting [4]) was 1.56e+06 s⁻¹; in test [2] (setting [5]) it was 722000 s⁻¹; in test [3], 798000 s⁻¹. For the same compound, the “kcat/Km lower than nC” value in test [2] (C2p compared to native catalase (nC)) was “ca. 48%”. Also, the “kcat/Km lower than C2” value in test [2] (C2p compared to non-purified cl-nanozyme (C2)) is listed as roughly 53%.

The values are drawn from patent US20130052154A1, “Compositions and Methods for the Treatment of Lung Inflammation” (BOARD OF REGENTS OF THE UNIVERSITY OF NEBRASKA, priority 2011, published 2013).
